Assay results published in paper PMC9186531, “Biochemical and structural characterization of the flavodoxin-like domain of the Schizosaccharomyces japonicus putative tRNA ^Phe 4-demethylwyosine synthase Tyw1 in complex with FMN” (microPublication Biology, 2022).

Target: T1, Tyw1 30-251 (Schizosaccharomyces japonicus, UniProt B6K6D6)
T1 construct: flavodoxin-like domain with N-terminal extension, residues 30-251; N-terminal TRX-6His or MBP-6His tag with TEV site, tag cleaved; E. coli KRX; monomer; calculated mass 24940 Da, MS 25010 Da
T1 sequence (B6K6D6 30-251): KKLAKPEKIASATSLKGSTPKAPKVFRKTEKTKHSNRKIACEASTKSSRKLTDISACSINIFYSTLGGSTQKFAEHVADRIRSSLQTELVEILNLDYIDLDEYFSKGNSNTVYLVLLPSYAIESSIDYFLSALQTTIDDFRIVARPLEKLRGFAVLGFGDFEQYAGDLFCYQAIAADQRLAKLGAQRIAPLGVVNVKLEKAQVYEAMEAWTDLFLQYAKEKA
Experiment: X-ray crystal structure (molecular replacement, […] A)
Type: binding
Conditions: co-purified oxidized FMN; crystals pH 8.5, 288 K; unit occupancy

## Cc1cc2nc3c(=O)[nH]c(=O)nc-3n(C[C@H](O)[C@H](O)[C@H](O)COP(=O)(O)O)c2cc1C [FMN]
  X-ray crystal structure (molecular replacement, 1.5 A): FMN density was strong and was modeled with unit occupancy in both structures.
